In assay [1] the test system is phosphorylation of p-ERK1/2 in H358 cells. In words: H358 Cellular Phospho-ERK AlphaLISA. Format: cell-based, Human. The following applies: Homo sapiens, NCI-H358, 2 h. As for the experimental part: This assay is used to measure the ability of test compounds to inhibit the phosphorylation of p-ERK1/2, a downstream effector of KRas in Human lung cancer cells H358 (ATCC CRL-5807). Briefly, the AlphaLISA® SureFire® Ultra™ p-ERK 1/2 (Thr202/Tyr204) assay is a sandwich immunoassay for quantitative detection of phospho-ERK 1/2 (phosphorylated on Thr202/Tyr204 in ERK1, or Thr185/Tyr187 in ERK2) in cellular lysates using Alpha Technology (Perkin Elmer Cat #ALSU-PERK-A50K).
H358 cells are plated at 40K cells per well in 100 μL media (RPMI 1640, GIBCO Cat #22400-071) containing 10% FBS (GIBCO Cat #: 10082-147) in a 96 well plate (Costar #3596) and are incubated overnight in humid trays at 37° C., 5% CO2. The next morning, 10 μL of serially-diluted (3-fold) test compounds (50 μM top concentration) and 10 uL of controls (Maximum signal wells: 5% DMSO and Minimum signal wells: 2 μM of N-(3-{3-cyclopropyl-5-[(2-fluoro-4-iodophenyl)amino]-6,8-dimethyl-2,4,7-trioxo-3,4,6,7-tetrahydropyrido[4,3-D]pyrimidin-1(2H)-yl}phenyl)acetamide (trametinib, as a positive control) are added to the cell plate and incubated for 2 hr in humid trays at 37° C./5% CO2. Lysis Buffer is prepared at RT containing a protease and phosphatase inhibitor cocktail. Culture medium is removed by inverting and shaking the cell plate in the sink and then blotting onto a paper towel. Lysis buffer is added to the cell plate (50 μL per well) and the plate is incubated at RT for 10 min on a shaker. For p-ERK detection, acceptor beads are diluted into a suspension mixture with buffer. Using a Starlett liquid handler, 5 μL of acceptor beads and 2 μL of cell lysate are transferred as a single-step in-tip dilution to a 384 well assay plate. The assay plate is sealed with foil and is incubated at RT for 2 hrs. Donor beads are diluted into a suspension mixture with buffer. Using the Starlet, 5 μL of donor beads are added to the assay plate that is then sealed, wrapped with foil. The plate is incubated at RT for 2 hrs in the dark. The assay plate is then read on an EnVision™ Plate Reader (Perkin Elmer) using a luminescence program.
The signal is converted to percent inhibition using the following equation: % Inhibition=100−[(Test Compound Signal−Median Minimum Signal)/(Median Maximum Signal−Median Min Signal)×100]. The Maximum signal is a control well without inhibitor.
(In general: In Alpha technology, singlet oxygen from a donor bead excites a nearby acceptor bead.)

The subject of a further assay is H358. Nature of the assay: 3D H358 Cell Proliferation Assay. It counts as cell-based. The following applies: Homo sapiens, NCI-H358; H358, 3D, 96 hr; read-out: relative IC50. As for the experimental part:
Human lung cancer cells, H358, (ATCC CRL-5807) are used to evaluate compound inhibition in a 3D proliferation assay. Signal reflecting cell proliferation is detected with the CellTiterGlo® 3D reagent (Promega G9683). The cells are grown in RPMI 1640 (GIBCO®) supplemented with 10% heat inactivated FBS and 0.1 mg/ml penicillin/streptomycin. H358 cells are cultured in the growth phase and five thousand cells per well are plated in a black well clear round bottom 96-well ultra-low attachment surface plate (Corning® Cat 4520) with 80 μl/well of culture media. Cells are incubated overnight at 37° C. in a humidity chamber. 20 μl/well of serially diluted test compound is added to the plate which is then incubated for 96 hr. Plates are brought to RT and an equal volume of RT CellTiterGlo® 3D reagent is added. Plates are shaken at 750 RPM for 10 min at RT After a 1 hr incubation at RT to stabilize the signal, the luminescent signal is measured on the EnVision™ plate reader. The signal is converted to percent inhibition using the following equation: % Inhibition=100−[(Test Compound Signal−Median Minimum Signal)/(Median Maximum Signal−Median Minimum Signal)×100]. The Max Signal is a control well without inhibitor.

For a further assay, the system named is Calu-1. Nature of the assay: CellTiterGlo Cell Proliferation Assay, Calu-1. Format: cell-based. Particulars: Homo sapiens, KRas G12C, Lung, 96 hr. Here is the method:
A panel of tumor cell lines harboring KRas G12C or other KRas mutations are collected (Table 6). All cell lines are from ATCC or other sources indicated.
Typically cells are cultured in RPMI1640 or Dulbecco's modified Eagle's medium (DMEM, GIBCO) supplemented with 10% FBS (GIBCO, Invitrogen). For 2D culture cells (4×10^3/well) maintained in growth medium described above, are plated onto 96 well tissue culture plates Corning® Cat. 3603) a day before the treatment. For 3D culture 8000 cells/well are seeded onto 96 well ultra-low attachment tissue culture plates (Corning, #3474). The cells are treated compound for 96 hr, and then are analyzed for viability using the CellTiterGlo® Luminescent Cell Viability Assay® (Promega #G7572 for 2D and Promega #G9683 for 3D cultures) according to manufacturer's instructions and an EnVision™ plate reader. Nonlinear regression and sigmoidal dose-response curves are used to calculate the half maximal inhibitory concentration (IC50) with GraphPad Prism 4® software.
On the technique in general: ATP-based viability assays read luminescence as a measure of living cells.

Another assay has as its system H23. In words: Combination 4 day growth assay (Cell TiterGlo), H23. Format: cell-based. The following applies: Homo sapiens, NCI-H23, 96 h, single treatment, read-out: Absolute IC50. Here is the method:
Cell lines for this study are obtained from ATCC and grown under ATCC recommended conditions, except for LXFA-983L, which is obtained from Oncotest/Charles Rivers Laboratories, Wilmington, Mass. and D122-96, which is obtained from L. Eisenbach (Weizman Institute of Science, Rehovot, Israel)—both grown under recommended conditions. […] The proliferation assay is performed as a 4 day growth assay using Cell TiterGlo® as the readout. Briefly, cells are plated in 96-well cell culture plates and allowed to adhere overnight at 37° C. The following day, cells are treated with compounds, either single treatments or combination treatments. First, the testing compounds are serially diluted in DMSO, followed by dilution into media as a 5× concentration with 1% DMSO, and finally added to cells in media to dilute to 1×. The cells are incubated at 37° C. for 4 more days. At the end of the incubation period, Cell TiterGlo® reagent is mixed and added to the wells. After 10 minutes, the luminescence is read by a Perkin Elmer Envision instrument. Absolute IC50 values generated by a 4-parameter logistics model for the single and combination treatments are generated, followed by combination indexes for each combination treatment and cell line. The combination IC50 values are adjusted based on the total concentration of each compound when added together. […] The combination index (CI) measures the degree to which the potency of a combination therapy differs from the expected-if-additive potency and is based on the Loewe definition of additivity.
[formula] Where • CAy and CBy are the concentrations of therapies A and B that produce an effect, y, when given in combination • ICAy and ICBy are the concentrations of A and B that produce an effect, y, when given individually The biological interpretation of the combination index is as follows: synergistic if the combination index <0.5, additive if the combination index is between 0.5 and 2, and antagonistic if the combination index is >2.

Read-outs that look alike come from different tables or passages of the source. Some results are limits rather than exact numbers.

As for `C=CC(=O)N1CCN(c2ncnc3c(F)c(-c4ccc(F)c5sc(N)nc45)c(Cl)cc23)CC1` [Example 1, 1-{4-[7-(2-Amino-7-fluoro-1,3-benzothiazol-4-yl)-6-chloro-8-fluoroquinazolin-4-yl]piperazin-1-yl}prop-2-en-1-one], the IC50 in assay [1] (read-out: pERK) was 5.66 nM; in assay [1] (read-out: relative IC50), 5.7 nM; with H358, less than 11.6 nM; in the assay with Calu-1 (read-out: IC50 (μM) in 2 D cell proliferation) it was 0.024 µM; in the assay with Calu-1 (read-out: IC50 (μM) in 3 D spheroid cell proliferation) it was 0.001 µM; in the assay on H23, 235 nM.

The record behind these values is patent publication US10968214B2, “KRas G12C inhibitors” (Eli Lilly and Company, priority 2018, dated 2021).
